Measured values taken from EP0191624A2, “Gold-purine antitumor agents” (ENGELHARD CORPORATION, priority 1985, dated 1986).
Where “and” joins values, the source holds several entries; their conditions need not be identical. Identical values can stand only once.

Experiments:
[1] = tested on: S180 ascites; assay: Screening for anti-tumor activity against S180 ascites (increase in life span); type: in vivo, female CFW Swiss mice; conditions: for %ILS: injected day 1; for 30-Day Survivors: survivors/mice in set
Experimental: The compounds were evaluated for anti-tumor activity against S180 ascites in female CFW Swiss mice by the following procedure: • CFW mice, averaging 20g, are immediately inspected and placed in newly prepared cages. On day zero the mice are inoculated with 0.2 ml. of a freshly prepared saline suspension (0.15 M NaCl) containing 1 x 10^7 tumor cells/ ml, or a total of 2 x 10^6 cells. This inoculum is freshly prepared using "transfer" mice which have been injected with tumor cells the previous week. This inoculum is the end-product of a series of steps which involves (1) the removal of the cells from the peritoneal cavity of the sacrificed transfer mouse, (2) alternate centrifugation- washing (2-3 times with cold saline) to remove occasional blood and other undesirable components, and finally (3) dilution (1:3) of the packed cell volume with saline (the final centrifugation being carried out at 1,000 rpm for 2 min.). A cell count is made on a 2,000-fold dilution of this 1:3 suspension by means of a Coulter Counter. A final dilution to 1 x 10^7 cells/ml. is made based on the averaged count. On day 1, solutions of the test compounds are prepared and the mice injected, with each mouse of a set of six being injected with the same test compound at the same dose level.
Also, on this day, two types of controls (6 mice/se are employed: (1) Normal (1 set): 0.5 ml. of the solvent medium used for the test compound, and (2) Positive control (1 set): a known anti-tumor agent (cis-(Pt(NH3)2Cl2] in saline at 8 mg./kg.), used to test the response of the biological system.
ILS values above 50% represent significant activity; those above 75% represent excellent activity.

[2] = Solubility in water; type: physicochemical
[3] = Stability in aqueous solution with respect to reduction; type: physicochemical
[4] = C. Dragulescu et al, Int. Coord. Chem. Conf. XVI 1,99 (1974); cited from earlier work
[5] = positive control in saline at 8 mg./kg., run alongside each test compound

Q: Which “Control 30-Day Survivors” value [1, 5] does the source give for `N.N.[Cl][Pt][Cl]` [Control, cis-diamminedichloroplatinum(II), reference compound] here?
A: Its value is 3/6 and 4/5.

Q: What about the “Control %ILS” value [1, 5] of the same compound?
A: The value was 80% and 96%.

Q: With `Cl.Cn1c(=O)c2c(ncn2CCCl)n(C)c1=O.Cn1c(=O)c2c(ncn2CCCl)n(C)c1=O.[Cl][Au]([Cl])[Cl]` [Example 1, [AuCl3(7-chloroethyl-theophylline)](7-chloro-ethyltheophylline)·HCl] as the compound, how does the “%ILS” value ([1]; dose 5 mg/kg) read?
A: Its value is 8%.

Q: What about the “30-Day Survivors” value ([1]; dose 5 mg/kg) of the same compound?
A: The value was 0/6.

Q: What about the “%ILS” value ([1]; dose 10 mg/kg) of the same compound?
A: Its value is -3%.

Q: What about the “30-Day Survivors” value ([1]; dose 10 mg/kg) of the same compound?
A: The value was 0/6.

Q: And the “%ILS” value ([1]; dose 20 mg/kg)?
A: The value was 14%.

Q: What about the “30-Day Survivors” value ([1]; dose 20 mg/kg) of the same compound?
A: The value was 0/6.

Q: And the “%ILS” value ([1]; dose 40 mg/kg)?
A: The value was 9%.

Q: What about the “30-Day Survivors” value ([1]; dose 40 mg/kg) of the same compound?
A: Its value is 0/6.

Q: What about the “%ILS” value ([1]; dose 80 mg/kg) of the same compound?
A: The value was 79%.

Q: What about the “30-Day Survivors” value ([1]; dose 80 mg/kg) of the same compound?
A: The value was 3/6.

Q: And the “%ILS” value ([1]; dose 160 mg/kg)?
A: Its value is 3%.

Q: And the “30-Day Survivors” value ([1]; dose 160 mg/kg)?
A: The value was 1/6.

Q: And the soluble in water [2]?
A: The soluble in water was “at least 64 mg/5 ml”.

Q: And the “stable, at least with respect to reduction, in solution” value [3]?
A: The value was “ca. 24 hours”.

Q: Which “%ILS” value ([1]; dose 10 mg/kg) does the source give for `Cl.Cn1c(=O)c2c(ncn2CC(O)CO)n(C)c1=O.Cn1c(=O)c2c(ncn2CC(O)CO)n(C)c1=O.[Cl][Au]([Cl])[Cl]` (stereo not shown) [Example 2, [AuCl3(7-(2,3-dihydroxy-propyl)theophylline)] (7-(2,3-dihydroxypropyl)theophylline)·HCl] here?
A: The value was -13%.

Q: What about the “30-Day Survivors” value ([1]; dose 10 mg/kg) of the same compound?
A: The value was 0/6.

Q: What about the “%ILS” value ([1]; dose 20 mg/kg) of the same compound?
A: Its value is -11%.

Q: What about the “30-Day Survivors” value ([1]; dose 20 mg/kg) of the same compound?
A: The value was 0/6.

Q: And the “%ILS” value ([1]; dose 40 mg/kg)?
A: Its value is -3%.

Q: And the “30-Day Survivors” value ([1]; dose 40 mg/kg)?
A: The value was 0/6.

Q: And the “%ILS” value ([1]; dose 80 mg/kg)?
A: Its value is 69%.

Q: What about the “30-Day Survivors” value ([1]; dose 80 mg/kg) of the same compound?
A: The value was 2/6.

Q: What about the “%ILS” value ([1]; dose 160 mg/kg) of the same compound?
A: Its value is 34%.

Q: And the “30-Day Survivors” value ([1]; dose 160 mg/kg)?
A: The value was 1/6.

Q: What about the “%ILS” value ([1]; dose 320 mg/kg) of the same compound?
A: Its value is -62%.

Q: What about the “30-Day Survivors” value ([1]; dose 320 mg/kg) of the same compound?
A: Its value is 0/6.

Q: What about the soluble in water [2] of the same compound?
A: The soluble in water was “at least 64 mg/5 ml”.

Q: What about the “stable, at least with respect to reduction, in solution” value [3] of the same compound?
A: Its value is “ca. 24 hours”.

Q: For [Au(III)(5-diazauracil)2Cl2]Cl, which “antitumor activity in mice” value [4] is on record?
A: Its value is “possess antitumor activity”.
